Measured values: patent US11584714B2 (priority 2018, dated 2023)
Where two headings read alike, the source gives them in different places.

Legend:
Format in all cases: biochemical
MASP-2 (CCP1-CCP2-SP) = MASP-2 (CCP1-CCP2-SP) (Homo sapiens (Human), UniProt O00187); assay: biochemical
mMASP-2 = mMASP-2 (Mus musculus (Mouse), UniProt Q91WP0); assay: Enzymatic inhibition of mMASP-2; settings: read-out: mMASP-2 Ki
human α-thrombin = human α-thrombin (Homo sapiens (Human), UniProt P00734); assay: Enzymatic assay for thrombin (Boc-VPR-AMC substrate)
[1] = MASP-2 inhibition versus thrombin
[2] = selectivity for MASP-2 inhibition versus thrombin

mMASP-2, sequence (Q91WP0 20-685): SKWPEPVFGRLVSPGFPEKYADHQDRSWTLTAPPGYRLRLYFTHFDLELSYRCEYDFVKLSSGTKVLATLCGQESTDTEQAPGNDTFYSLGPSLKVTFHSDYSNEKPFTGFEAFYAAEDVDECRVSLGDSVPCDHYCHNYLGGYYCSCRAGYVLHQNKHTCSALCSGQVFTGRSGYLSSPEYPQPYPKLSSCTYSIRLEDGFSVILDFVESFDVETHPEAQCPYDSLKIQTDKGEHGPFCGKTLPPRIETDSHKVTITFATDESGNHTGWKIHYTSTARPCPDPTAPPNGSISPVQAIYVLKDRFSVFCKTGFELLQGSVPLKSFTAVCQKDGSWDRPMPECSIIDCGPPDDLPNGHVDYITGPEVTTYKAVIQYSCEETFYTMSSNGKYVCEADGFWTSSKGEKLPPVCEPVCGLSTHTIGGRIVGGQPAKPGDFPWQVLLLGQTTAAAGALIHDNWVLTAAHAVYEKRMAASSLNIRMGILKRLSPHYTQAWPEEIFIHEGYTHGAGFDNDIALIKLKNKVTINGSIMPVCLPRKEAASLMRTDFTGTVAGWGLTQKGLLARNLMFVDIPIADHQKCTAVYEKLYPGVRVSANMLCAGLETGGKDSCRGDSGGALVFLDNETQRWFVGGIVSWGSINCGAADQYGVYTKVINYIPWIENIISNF
MASP-2 (CCP1-CCP2-SP), sequence (O00187 445-686): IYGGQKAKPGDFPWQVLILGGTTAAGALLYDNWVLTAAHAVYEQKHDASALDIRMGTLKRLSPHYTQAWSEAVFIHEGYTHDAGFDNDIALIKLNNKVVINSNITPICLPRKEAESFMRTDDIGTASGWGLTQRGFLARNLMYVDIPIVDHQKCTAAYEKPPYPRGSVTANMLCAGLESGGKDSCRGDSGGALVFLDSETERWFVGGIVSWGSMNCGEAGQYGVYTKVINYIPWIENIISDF

Row | Structure (SMILES) | MASP-2 vs. thrombin selectivity (MASP-2 (CCP1-CCP2-SP); [1]) | Ki (MASP-2 (CCP1-CCP2-SP); read-out: MASP-2 Ki) | Ki (mMASP-2) | Ki (human α-thrombin; read-out: Thrombin Ki) | MASP-2 vs. thrombin selectivity (MASP-2 (CCP1-CCP2-SP); [2]) | Ki (human α-thrombin; Thrombin Ki (μM)) | Ki (MASP-2 (CCP1-CCP2-SP))
1 | COc1cccc(CC[C@@H](N)C(=O)N[C@@H](C)C(=O)NCc2ccc(C(=N)N)cc2)c1 [compound 1075] | ** (5.0 to 25-fold) | < 500 nM | < 500 nM | < 0.5 µM |  |  | 
2 | C[C@H](NC(=O)[C@H](N)CCc1ccc(Cl)cc1)C(=O)NCc1ccc(C(=N)N)cc1 [compound 1080] | ** (5.0 to 25-fold) | < 500 nM | < 500 nM | < 0.5 µM |  |  | 
3 | C[C@H](NC(=O)[C@H](N)Cc1cccc2ccccc12)C(=O)NCc1ccc(C(=N)N)cc1 [compound 1092] | −− (less than 1.0-fold) | < 500 nM | < 500 nM | < 0.5 µM |  |  | 
4 | C[C@H](NC(=O)[C@@H](CCc1ccccc1)NC1CCC1)C(=O)NCc1ccc(C(=N)N)cc1 [compound 1108] | * (1.0 to 5.0-fold) | < 500 nM | < 500 nM | < 0.5 µM |  |  | 
5 | CCCCCN[C@H](CCc1ccccc1)C(=O)N[C@@H](C)C(=O)NCc1ccc(C(=N)N)cc1 [compound 1125] | −− (less than 1.0-fold) | < 500 nM | < 500 nM | < 0.5 µM |  |  | 
6 | C[C@H](NC(=O)[C@@H](CCc1ccccc1)NCc1ccc[nH]1)C(=O)NCc1ccc(C(=N)N)cc1 [compound 1128] | * (1.0 to 5.0-fold) | < 500 nM | < 500 nM | < 0.5 µM |  |  | 
7 | C[C@H](NC(=O)[C@@H](CCc1ccccc1)NCc1ccccc1)C(=O)NCc1ccc(C(=N)N)cc1 [compound 1134] | −− (less than 1.0-fold) | < 500 nM | < 500 nM | < 0.5 µM |  |  | 
8 | C[C@H](NC(=O)[C@@H](CCc1ccccc1)NCc1ccc(N2CCOCC2)cc1)C(=O)NCc1ccc(C(=N)N)cc1 [compound 1149] | ** (5.0 to 25-fold) | < 500 nM | < 500 nM | < 0.5 µM |  |  | 
9 | C[C@@H](NC(=O)[C@H](N)CCc1ccccc1)C(=O)NCc1ccc2nc(N)[nH]c2c1 [compound 1170] | **** (>100-fold) | < 500 nM | < 25000 nM | > 25 µM |  |  | 
10 | C[C@H](NC(=O)[C@H](CCc1ccccc1)NCc1c[nH]c2ccccc12)C(=O)NCc1ccc(C(=N)N)cc1 [compound 1223] | *** (25 to 100-fold) | < 500 nM | < 500 nM | < 0.5 µM |  |  | 
11 | Cc1cccc([C@H]2CCN[C@@H](C(=O)N[C@@H](C)C(=O)NCc3ccc(C(=N)N)cc3)C2)c1 [compound 1231, (2R,4S)—N—((S)-1-((4-Carbamimidoylbenzyl)amino)-1-oxopropan-2-yl)-4-(m-tolyl)piperidine-2-carboxamide] |  | < 500 nM | < 500 nM |  | **** (≥100-fold) | 2.5 to 10 µM | 
12 | C[C@H](NC(=O)[C@@H](CCc1ccccc1)NCc1ccc(-c2nnn[nH]2)cc1)C(=O)NCc1ccc(C(=N)N)cc1 [compound 1233, (R)-2-((4-(1H-Tetrazol-5-yl)benzyl)amino)-N—((S)-1-((4-carbamimidoylbenzyl)amino)-1-oxopropan-2-yl)-4-phenylbutanamide] |  | < 500 nM | < 500 nM |  | * (≥1.0 to <5.0-fold) | 0.5 to 2.5 µM | 
13 | C[C@H](NC(=O)[C@@H](CCc1ccccc1)NCc1ccc(OCCO)cc1)C(=O)NCc1ccc(C(=N)N)cc1 [compound 1236, (R)—N—((S)-1-((4-Carbamimidoylbenzyl)amino)-1-oxopropan-2-yl)-2-((4-(2-hydroxyethoxy)benzyl)amino)-4-phenylbutanamide] |  | < 500 nM | < 500 nM | < 0.5 µM | * (≥1.0 to <5.0-fold) |  | 
14 | COc1ccc(-c2c[nH]c(C(=O)N[C@@H](C)C(=O)NCc3ccc(C(=N)N)cc3)c2)cc1 [compound 1238, (S)—N-(1-((4-Carbamimidoylbenzyl)amino)-1-oxopropan-2-yl)-4-(4-methoxyphenyl)-1H-pyrrole-2-carboxamide] |  | < 500 nM | < 500 nM |  | *** (≥25 to <100-fold) | 2.5 to 10 µM | 
15 | Cc1cccc([C@@H]2CCN[C@@H](C(=O)N[C@@H](C)C(=O)NCc3ccc(C(=N)N)cc3)C2)c1 [compound 1241, (2R,4R)—N—((S)-1-((4-Carbamimidoylbenzyl)amino)-1-oxopropan-2-yl)-4-(m-tolyl)piperidine-2-carboxamide] |  | < 500 nM | < 500 nM | < 0.5 µM | * (≥1.0 to <5.0-fold) |  | 
16 | C[C@H](NC(=O)[C@H]1C[C@H](c2ccccc2)CN1)C(=O)NCc1cc(Cl)ccc1O [compound 1242, (2R,4R)—N—((S)-1-((5-Chloro-2-hydroxybenzyl)amino)-1-oxopropan-2-yl)-4-phenylpyrrolidine-2-carboxamide] |  |  | 2500 to 10000 nM |  | ** (≥5.0 to <25-fold) | 2.5 to 10 µM | 500 to 2500 nM
17 | Cc1nc(N)ccc1CNC(=O)[C@H](C)NC(=O)[C@H](N)CCc1ccccc1 [compound 1245, (R)-2-Amino-N—((S)-1-(((6-amino-2-methylpyridin-3-yl)methyl)amino)-1-oxopropan-2-yl)-4-phenylbutanamide] |  | < 500 nM | 10000 to 25000 nM |  | **** (≥100-fold) | 10 to 25 µM | 
18 | Cc1cccc([C@H]2CN[C@@H](C(=O)N[C@@H](C)C(=O)NCc3ccc(C(=N)N)cc3)C2)c1 [compound 1247, (2R,4S)—N—((S)-1-((4-Carbamimidoylbenzyl)amino)-1-oxopropan-2-yl)-4-(m-tolyl)pyrrolidine-2-carboxamide] |  | < 500 nM | < 500 nM |  | *** (≥25 to <100-fold) | 0.5 to 2.5 µM | 
19 | Cc1ccc([C@@H]2CCN[C@@H](C(=O)N[C@@H](C)C(=O)NCc3ccc(C(=N)N)cc3)C2)cc1 [compound 1248, (2R,4R)—N—((S)-1-((4-Carbamimidoylbenzyl)amino)-1-oxopropan-2-yl)-4-(p-tolyl)piperidine-2-carboxamide] |  | < 500 nM | < 500 nM |  | ** (≥5.0 to <25-fold) | 0.5 to 2.5 µM | 
20 | Cc1ccc([C@H]2CCN[C@@H](C(=O)N[C@@H](C)C(=O)NCc3ccc(C(=N)N)cc3)C2)cc1 [compound 1249, (2R,4S)—N—((S)-1-((4-Carbamimidoylbenzyl)amino)-1-oxopropan-2-yl)-4-(p-tolyl)piperidine-2-carboxamide] |  | < 500 nM | < 500 nM |  | **** (≥100-fold) | 10 to 25 µM | 
21 | C[C@H](NC(=O)[C@@H](CCc1ccccc1)NCc1ccc(N2CCN(S(C)(=O)=O)CC2)cc1)C(=O)NCc1ccc(C(=N)N)cc1 [compound 1250, (R)—N—((S)-1-((4-Carbamimidoylbenzyl)amino)-1-oxopropan-2-yl)-2-((4-(4-(methylsulfonyl)piperazin-1-yl)benzyl)amino)-4-phenylbutanamide] |  | < 500 nM | < 500 nM | < 0.5 µM | * (≥1.0 to <5.0-fold) |  | 
